The test system of the assay is CD2F1 mice, L1210 leukemia ip, survival T/C. Kind of assay: NCI In Vivo Anticancer Drug Screen. Data for tumor model L1210 Leukemia (intraperitoneal) in CD2F1 (CDF1) mice. The settings on record: higher = longer survival. The method in brief:
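Implant tumor; dose compound or vehicle; measure endpoint in both groups; report treated divided by control.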

The mark [1] stands for this setting: endpoint: mean survival time, dose: 100.0 mg/kg/injection, schedule: Q01DX009 (ip), vehicle: Klucel (hydroxypropylcellulose) (HPC).
Where [2] appears, read: endpoint: mean survival time, dose: 200.0 mg/kg/injection, schedule: Q01DX009 (ip), vehicle: Klucel (hydroxypropylcellulose) (HPC).
The mark [3] stands for this setting: endpoint: mean survival time, dose: 100.0 mg/kg/injection, schedule: Q04DX003 (ip), vehicle: saline with Tween-80.
[4] abbreviates: endpoint: mean survival time, dose: 200.0 mg/kg/injection, schedule: Q04DX003 (ip), vehicle: saline with Tween-80.
Where [5] appears, read: endpoint: mean survival time, dose: 400.0 mg/kg/injection, schedule: Q04DX003 (ip), vehicle: saline with Tween-80.
[6] abbreviates: endpoint: mean survival time, dose: 100.0 mg/kg/injection, schedule: Q04DX003 (ip), vehicle: saline.
The mark [7] stands for this setting: endpoint: mean survival time, dose: 100.0 mg/kg/injection, schedule: Q01DX001 (ip), vehicle: saline with Tween-80.

“And” between values parts separate entries of the source, which are not always exact repeats. Identical values can stand only once. Toxic doses and inconclusive results are not listed.

On to `ClCCOc1ccccc1-c1ccccc1`, for which the T/C was 98 % of control (endpoint: mean survival time, dose: 100.0 mg/kg/injection, schedule: Q04DX003 (ip), vehicle: other); 96 % of control (endpoint: mean survival time, dose: 200.0 mg/kg/injection, schedule: Q04DX003 (ip), vehicle: other); 100 % of control (endpoint: mean survival time, dose: 400.0 mg/kg/injection, schedule: Q04DX003 (ip), vehicle: other).
Consider `O=S1(=O)C=Cc2ccccc2O1`, for which the T/C was 102 % of control (endpoint: mean survival time, dose: 75.0 mg/kg/injection, schedule: Q01DX009 (ip), vehicle: saline); 97 % of control (endpoint: mean survival time, dose: 75.0 mg/kg/injection, schedule: Q04DX003 (ip), vehicle: saline); 102 % of control (endpoint: mean survival time, dose: 150.0 mg/kg/injection, schedule: Q01DX009 (ip), vehicle: saline); 95 % of control (endpoint: mean survival time, dose: 150.0 mg/kg/injection, schedule: Q04DX003 (ip), vehicle: saline); 100 % of control (endpoint: mean survival time, dose: 300.0 mg/kg/injection, schedule: Q01DX009 (ip), vehicle: saline); 97 % of control (endpoint: mean survival time, dose: 300.0 mg/kg/injection, schedule: Q04DX003 (ip), vehicle: saline).
Consider `C[C@]12CC[C@@H]3c4ccc(O)cc4CC[C@H]3[C@@H]1CC[C@@H]2O`, for which the T/C was 94 % of control (endpoint: mean survival time, dose: 6.25 mg/kg/injection, schedule: Q01DX009 (ip), vehicle: Klucel (hydroxypropylcellulose) (HPC)); 100 % of control (endpoint: mean survival time, dose: 12.5 mg/kg/injection, schedule: Q01DX009 (ip), vehicle: Klucel (hydroxypropylcellulose) (HPC)); 97 % of control (endpoint: mean survival time, dose: 25.0 mg/kg/injection, schedule: Q01DX009 (ip), vehicle: Klucel (hydroxypropylcellulose) (HPC)); 96 % of control (endpoint: mean survival time, dose: 50.0 mg/kg/injection, schedule: Q01DX009 (ip), vehicle: Klucel (hydroxypropylcellulose) (HPC)); 105 % of control under setting [1]; 96 % of control under setting [2].
For the molecule `CNC(=O)/C(=C(\[O-])NC)[S+](C)(C)=O`, the T/C was 101 % of control under setting [3], 100 % of control under setting [4] and 100 % of control under setting [5].
Regarding `CCOP(=O)(OCC)C(C#N)Cc1ccccc1OC` (configuration not stated), the T/C was 98 % of control under setting [6] and 101 % of control (endpoint: mean survival time, dose: 200.0 mg/kg/injection, schedule: Q04DX003 (ip), vehicle: saline).
In the case of `C#CC(OC(=O)NC(CCSC)C(=O)OC)(c1ccccc1)c1ccccc1` (configuration not stated), the T/C (endpoint: mean survival time, dose: 25.0 mg/kg/injection, schedule: Q01DX001 (ip), vehicle: saline with Tween-80) was 102 % of control; the T/C (endpoint: mean survival time, dose: 50.0 mg/kg/injection, schedule: Q01DX001 (ip), vehicle: saline with Tween-80) was 94 % of control; the T/C under setting [7] is 102 % of control.
Regarding `NC(=S)N/N=C/c1cc(-c2cccc(N)c2)ccn1`, the T/C by setting is: (endpoint: mean survival time, dose: 6.25 mg/kg/injection, schedule: Q01DX009 (ip), vehicle: saline with Tween-80) 113 % of control; (endpoint: mean survival time, dose: 9.4 mg/kg/injection, schedule: Q01DX009 (ip), vehicle: saline with Tween-80) 116 % of control and 104 % of control; (endpoint: mean survival time, dose: 12.5 mg/kg/injection, schedule: Q01DX009 (ip), vehicle: saline with Tween-80) 115 % of control; (endpoint: mean survival time, dose: 18.8 mg/kg/injection, schedule: Q01DX009 (ip), vehicle: saline with Tween-80) 115 % of control and 118 % of control; (endpoint: mean survival time, dose: 25.0 mg/kg/injection, schedule: Q01DX009 (ip), vehicle: saline with Tween-80) 123 % of control; (endpoint: mean survival time, dose: 37.5 mg/kg/injection, schedule: Q01DX009 (ip), vehicle: saline with Tween-80) 115 % of control and 119 % of control. The T/C (endpoint: mean survival time, dose: 75.0 mg/kg/injection, schedule: Q01DX009 (ip), vehicle: saline with Tween-80) is 89 % of control and 104 % of control and 107 % of control.
As to `CCC(=N\N=C(N)N)/C(C)=N\N=C(N)N`, the T/C (endpoint: mean survival time, dose: 15.0 mg/kg/injection, schedule: Q01DX009 (ip), vehicle: saline) was 95 % of control and the T/C (endpoint: mean survival time, dose: 30.0 mg/kg/injection, schedule: Q01DX009 (ip), vehicle: saline) is 91 % of control.
For `O=Cc1nccc2c1[nH]c1ccccc12`, the T/C under setting [3] was 95 % of control, the T/C under setting [4] was 104 % of control and the T/C under setting [5] is 100 % of control.
Regarding `CCC(=O)c1ccc(OC(C)=O)c(OC(C)=O)c1`, the T/C was 96 % of control (endpoint: mean survival time, dose: 100.0 mg/kg/injection, schedule: Q01DX009 (ip), vehicle: saline); 96 % of control (endpoint: mean survival time, dose: 200.0 mg/kg/injection, schedule: Q01DX009 (ip), vehicle: saline); 96 % of control (endpoint: mean survival time, dose: 400.0 mg/kg/injection, schedule: Q01DX009 (ip), vehicle: saline).
Consider `CCCCS(=O)(=O)C1CCCC1=O` (configuration not stated), for which the T/C was 102 % of control under setting [3], 102 % of control under setting [4] and 102 % of control under setting [5].
In the case of `CC(=O)Oc1ccccc1O`, the T/C reads like this: (endpoint: median survival time, dose: 12.5 mg/kg/injection, schedule: Q01DX009 (ip), vehicle: saline + Tween-80 + alcohol) 96 % of control and 103 % of control; (endpoint: median survival time, dose: 25.0 mg/kg/injection, schedule: Q01DX009 (ip), vehicle: saline + Tween-80 + alcohol) 101 % of control and 109 % of control.
Consider `NC(=O)c1cn(C2CCCCC2)c2ncccc12`, for which the T/C by setting is: (endpoint: mean survival time, dose: 100.0 mg/kg/injection, schedule: Q01DX001 (ip), vehicle: saline) 96 % of control; (endpoint: mean survival time, dose: 200.0 mg/kg/injection, schedule: Q01DX001 (ip), vehicle: saline) 96 % of control; (endpoint: mean survival time, dose: 400.0 mg/kg/injection, schedule: Q01DX001 (ip), vehicle: saline) 102 % of control.
For `NNC(=O)COc1ccccc1`, the T/C is 101 % of control (endpoint: mean survival time, dose: 25.0 mg/kg/injection, schedule: Q04DX003 (ip), vehicle: saline); 101 % of control (endpoint: mean survival time, dose: 50.0 mg/kg/injection, schedule: Q04DX003 (ip), vehicle: saline); 103 % of control under setting [6].
Consider `O=C1c2ccccc2C(=O)N1c1nc2ccccc2s1`, for which the T/C (endpoint: mean survival time, dose: 100.0 mg/kg/injection, schedule: Q04DX002 (ip), vehicle: saline with Tween-80) is 96 % of control; the T/C (endpoint: mean survival time, dose: 200.0 mg/kg/injection, schedule: Q04DX002 (ip), vehicle: saline with Tween-80) was 89 % of control; the T/C (endpoint: mean survival time, dose: 400.0 mg/kg/injection, schedule: Q04DX002 (ip), vehicle: saline with Tween-80) is 100 % of control.
Turning to `N#CC(C#N)=C1CCN2CCCc3cccc1c32`, the T/C is, setting by setting: under setting [7], 100 % of control; (endpoint: mean survival time, dose: 200.0 mg/kg/injection, schedule: Q01DX001 (ip), vehicle: saline with Tween-80) 95 % of control; (endpoint: mean survival time, dose: 400.0 mg/kg/injection, schedule: Q01DX001 (ip), vehicle: saline with Tween-80) 111 % of control.
With `CC1(C)N=C(N)N=C(N)N1c1cccc(OCCOc2cccc(N)c2)c1`, the T/C was 97 % of control (endpoint: mean survival time, dose: 25.0 mg/kg/injection, schedule: Q01DX001 (ip), vehicle: Klucel (hydroxypropylcellulose) (HPC)) and 97 % of control (endpoint: mean survival time, dose: 50.0 mg/kg/injection, schedule: Q01DX001 (ip), vehicle: Klucel (hydroxypropylcellulose) (HPC)).
Regarding `Cc1ccc([NH-])c(Cl)c1.Cc1ccc([NH-])c(Cl)c1.[Cl][Pt+2][Cl]`, the T/C is 95 % of control (endpoint: mean survival time, dose: 12.5 mg/kg/injection, schedule: Q04DX003 (ip), vehicle: saline with Tween-80); 97 % of control (endpoint: mean survival time, dose: 25.0 mg/kg/injection, schedule: Q04DX003 (ip), vehicle: saline with Tween-80); 97 % of control (endpoint: mean survival time, dose: 50.0 mg/kg/injection, schedule: Q04DX003 (ip), vehicle: saline with Tween-80); 97 % of control under setting [3]; 89 % of control under setting [4].
In the case of `NC(=N\O)/C(N)=N/O.[Cl][Pt][Cl]`, the T/C reads like this: (endpoint: median survival time, dose: 3.12 mg/kg/injection, schedule: Q04DX003 (ip), vehicle: saline) 100 % of control; (endpoint: median survival time, dose: 6.25 mg/kg/injection, schedule: Q04DX003 (ip), vehicle: saline) 103 % of control; (endpoint: median survival time, dose: 12.5 mg/kg/injection, schedule: Q04DX003 (ip), vehicle: saline) 97 % of control; (endpoint: median survival time, dose: 25.0 mg/kg/injection, schedule: Q04DX003 (ip), vehicle: saline) 103 % of control; (endpoint: median survival time, dose: 50.0 mg/kg/injection, schedule: Q04DX003 (ip), vehicle: saline) 109 % of control; (endpoint: median survival time, dose: 100.0 mg/kg/injection, schedule: Q04DX003 (ip), vehicle: saline) 112 % of control. Also, the T/C (endpoint: median survival time, dose: 200.0 mg/kg/injection, schedule: Q04DX003 (ip), vehicle: saline) is 123 % of control.
`CS(=O)(=O)OCC(/C=C/C(COS(C)(=O)=O)OS(C)(=O)=O)OS(C)(=O)=O` (configuration not stated): the T/C by setting is: under setting [1], 150 % of control; under setting [2], 175 % of control.
Take `O=C1C(O)CC(c2ccccc2)N1c1ccccc1` (configuration not stated): the T/C under setting [3] was 95 % of control, the T/C under setting [4] is 95 % of control and the T/C under setting [5] is 100 % of control.
For the molecule `OC1C2CC3C(C2)C13` (configuration not stated), the T/C was 102 % of control and 106 % of control (endpoint: mean survival time, dose: 100.0 mg/kg/injection, schedule: Q01DX009 (ip), vehicle: saline with Tween-80); 96 % of control (endpoint: mean survival time, dose: 200.0 mg/kg/injection, schedule: Q01DX009 (ip), vehicle: saline with Tween-80); 98 % of control and 102 % of control (endpoint: mean survival time, dose: 400.0 mg/kg/injection, schedule: Q01DX009 (ip), vehicle: saline with Tween-80).

These data come from PubChem BioAssay AID256 (DTP/NCI, 2004).
